Patent US11013726B2 (Arbutus Biopharma Corporation, priority 2016, dated 2021)

Tested on: HBsAg
Assay: HBsAg assay
Type: cell-based, hepatitis B virus
Conditions: Hepatitis B virus, HepG2.2.15, 144 h, read-out: sAg EC50, μM, HepG2.2.15 cells, day 6
Summary of the method: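 HepG2.2.15 cells were treated with serially diluted compounds (0.5% DMSO), with medium and compound renewed after 2-3 days. Secreted HBsAg measured at day 6 by chemiluminescence immunoassay; EC50 from dose-response curves. Viability assessed in parallel by CellTiter-Glo.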

Structure (SMILES) | EC50 [µM]
COCC1COc2cc3c(cc2OC1)-c1cc(=O)c(C(=O)O)cn1C(C(C)(C)C)C3 (stereo not drawn) [Example 96, 6-(Tert-butyl)-11-(methoxymethyl)-2-oxo-6,7,11,12-tetrahydro-2H,10H-[1,4]dioxepino[2,3-g]pyrido[2,1-a]isoquinoline-3-carboxylic acid] | 0.14
CCc1cc2c(cc1OCCCO)OC[C@@H](C(C)C)n1cc(C(=O)O)c(=O)cc1-2 [Example 56, (R)-2-Ethyl-3-(3-hydroxypropoxy)-7-isopropyl-11-oxo-6,7-dihydro-111H-benzo[f]pyrido[1,2-d][1,4]oxazepine-10-carboxylic acid] | 0.026
COCCCOc1cc2c(cc1Cl)-c1cc(=O)c(-n3nn[nH]c3=O)cn1C(C(C)(C)C)C2 (stereo not drawn) [Example 114, 6-(Tert-butyl)-10-chloro-9-(3-methoxypropoxy)-3-(5-oxo-4,5-dihydro-1H-tetrazol-1-yl)-6,7-dihydro-2H-pyrido [2,1-a]isoquinolin-2-one] | 3
CCC1(C(C)C)Cc2cc(OCCCOC)c(OC)nc2-c2cc(=O)c(C(=O)O)cn21 (stereo not drawn) [Example 163, 6-Ethyl-6-isopropyl-2-methoxy-3-(3-methoxypropoxy)-10-oxo-5,10-dihydro-6H-pyrido[1,2-h][1,7]naphthyridine-9-carboxylic acid] | 0.13
COCc1nc2c(s1)CC(C(C)C)n1cc(C(=O)O)c(=O)cc1-2 (stereo not drawn) [Example 88, 5-Isopropyl-2-(methoxymethyl)-9-oxo-4,9-dihydro-5H-thiazolo[4,5-a]quinolizine-8-carboxylic acid] | 3.1
COCCNc1cc2c(cc1Cl)-c1cc(=O)c(C(=O)O)cn1[C@H](C(C)C)CO2 [Example 64, (R)-2-Chloro-7-isopropyl-3-((2-methoxyethyl)amino)-11-oxo-6,7-dihydro-11H-benzo[f]pyrido[1,2-d][1,4]oxazepine-10-carboxylic acid] | 0.066
COCCCOc1cc2c(cc1Cl)-c1cc(=O)c(NC(=O)OC(C)(C)C)cn1[C@H](C(C)C)CO2 [Example 134, Tert-butyl (R)-(2-chloro-7-isopropyl-3-(3-methoxypropoxy)-11-oxo-6,7-dihydro-11H-benzo[f]pyrido[1,2-d][1,4]oxazepin-10-yl)carbamate] | 45
CC(C)[C@@H]1COc2cc(OCCCNC(=O)OC(C)(C)C)c(Cl)cc2-c2cc(=O)c(C(=O)O)cn21 [Example 42, (R)-3-(3-((tert-Butoxycarbonyl)amino)propoxy)-2-chloro-7-isopropyl-11-oxo-6,7-dihydro-11H-benzo[f]pyrido[1,2-d][1,4]oxazepine-10-carboxylic acid] | 0.042
CN=c1cc2n(cc1C(=O)O)C(C(C)C)Cc1cc(OCCCOC)c(OC)cc1-2 (stereo not drawn) [Example 147] | 0.65
COCCCOc1cc2c(nc1OC)-c1cc(=O)c(C(=O)NS(C)(=O)=O)cn1[C@H](C(C)C)C2 [Example 118, (S)-6-Isopropyl-2-methoxy-3-(3-methoxypropoxy)-N-(methylsulfonyl)-10-oxo-5,10-dihydro-6H-pyrido[1,2-h][1,7]naphthyridine-9-carboxamide] | 0.051
COCCCOc1cc2c(cc1Cl)-c1cc(=O)c(B(O)O)cn1[C@H](C(C)C)CO2 [Example 140, (R)-(2-Chloro-7-isopropyl-3-(3-methoxypropoxy)-11-oxo-6,7-dihydro-11H-benzo[f]pyrido[1,2-d][1,4]oxazepin-10-yl)boronic acid] | 2.1
CC(C)[C@@H]1COc2cc(OCC3CC3)c(Cl)cc2-c2cc(=O)c(C(=O)O)cn21 [Example 35, (R)-2-Chloro-3-(cyclopropylmethoxy)-7-isopropyl-11-oxo-6,7-dihydro-11H-benzo[f]pyrido[1,2-d][1,4]oxazepine-10-carboxylic acid] | 0.033
COCCOC1COc2cc3c(cc2OC1)-c1cc(=O)c(C(=O)O)cn1C(C(C)(C)C)C3 (stereo not drawn) [Example 97, 6-(Tert-butyl)-11-(2-methoxyethoxy)-2-oxo-6,7,11,12-tetrahydro-2H,10H-[1,4]dioxepino[2,3-g]pyrido[2,1-a]isoquinoline-3-carboxylic acid] | 1.4
C=C1COc2cc3c(cc2OC1)-c1cc(=O)c(CO)cn1C(C(C)(C)C)C3 (stereo not drawn) [Example 101, 6-(Tert-butyl)-3-(hydroxymethyl)-1-methylene-6,7,11,12-tetrahydro-2H,10H-[1,4]dioxepino[2,3-g]pyrido[2,1-a]isoquinolin-2-one] | 5.8
Cc1cc2c(cc1OCCCO)OC[C@@H](C(C)C)n1cc(C(=O)O)c(=O)cc1-2 [Example 60, (R)-3-(3-Hydroxypropoxy)-7-isopropyl-2-methyl-11-oxo-6,7-dihydro-11H-benzo[f]pyrido[1,2-d][1,4]oxazepine-10-carboxylic acid] | 0.057
COCCCOc1cc2c(nc1OC)-c1cc(=O)c(C(C)=O)cn1C(C(C)C)C2 (stereo not drawn) [Example 142, 9-Acetyl-6-isopropyl-2-methoxy-3-(3-methoxypropoxy)-5,6-dihydro-10H-pyrido[1,2-h][1,7]naphthyridin-10-one] | 0.62

Structure (SMILES) | EC50 [µM]
COCCOc1cc2c(cc1Cl)-c1cc(=O)c(C(=O)O)cn1[C@H](C(C)C)CO2 (single isomer, unassigned) [Example 30] | 0.053
CCOC(=O)c1cn2c(cc1=O)-c1cc(Cl)c(O)cc1OCC2C(C)C (stereo not drawn) [Example 32, Ethyl 2-chloro-3-hydroxy-7-isopropyl-11-oxo-6,7-dihydro-11H-benzo[f]pyrido[1,2-d][1,4]oxazepine-10-carboxylate] | 22
COCCCOc1cc2c(cc1OC)-c1cc(=NOC)c(C(=O)O)cn1C(C(C)C)C2 (stereo not drawn) [Example 149] | 7.4
COCCCOc1cc2c(cc1Cl)-c1cc3noc(=O)c-3cn1C(C(C)(C)C)C2 (stereo not drawn) [Example 146, 6-(Tert-butyl)-2-chloro-3-(3-methoxypropoxy)-5,6-dihydro-9H-isoxazolo[3′,4′:4,5]pyrido[2,1-a]isoquinolin-9-one] | 0.031
CCC1(CC)Cc2cc(OCCCOC)c(OC)nc2-c2cc(=O)c(C(=O)O)cn21 [Example 162, 6,6-Diethyl-2-methoxy-3-(3-methoxypropoxy)-10-oxo-5,10-dihydro-6H-pyrido[1,2-h][1,7]naphthyridine-9-carboxylic acid] | 0.014
COCCCOc1cc2c(nc1OC)-c1cc(=O)c(C(C)(C)O)cn1C(C(C)C)C2 (stereo not drawn) [Example 143, 9-(2-Hydroxypropan-2-yl)-6-isopropyl-2-methoxy-3-(3-methoxypropoxy)-5,6-dihydro-10H-pyrido[1,2-h][1,7]naphthyridin-10-one] | 0.91
CC(C)[C@@H]1COc2cc(N3CCOCC3)c(Cl)cc2-c2cc(=O)c(C(=O)O)cn21 [Example 62, (R)-2-Chloro-7-isopropyl-3-morpholino-11-oxo-6,7-dihydro-11H-benzo[f]pyrido[1,2-d][1,4]oxazepine-10-carboxylic acid] | 0.21
COCCCOc1cc2c(cc1Cl)-c1cc(=O)c(C(=O)O)cn1[C@@H](C(C)C)CO2 [Example 28, (S)-2-Chloro-7-isopropyl-3-(3-methoxypropoxy)-11-oxo-6,7-dihydro-11H-benzo[f]pyrido[1,2-d][1,4]oxazepine-10-carboxylic acid] | 0.46
COCCCOc1cc2c(cc1Cl)-c1cc(=O)c(NC(=O)NC(C)(C)C)cn1C(C(C)(C)C)C2 (stereo not drawn) [Example 126, 3-Tert-butyl-1-[6-tert-butyl-10-chloro-9-(3-methoxypropoxy)-2-oxo-6H,7H-pyrido[2,1-a]isoquinolin-3-yl]urea] | 6.1
COCCCOc1cc2c(cc1Cl)-c1cc(=NO)c(C(=O)O)cn1C(C(C)(C)C)C2 (stereo not drawn) [Example 145, 6-Tert-butyl-10-chloro-2-(hydroxyimino)-9-(3-methoxypropoxy)-6H,7H-pyrido[2,1-a]isoquinoline-3-carboxylic acid] | 0.15
COCCCOc1cc2c(nc1Cl)-c1cc(=O)c(C(=O)O)cn1[C@H](C(C)(C)C)CO2 [Example 66, (R)-7-(Tert-butyl)-2-chloro-3-(3-methoxypropoxy)-11-oxo-6,7-dihydro-11H-dipyrido[1,2-d:2′,3′-f][1,4]oxazepine-10-carboxylic acid] | 0.002
COCCCOc1cc2c(nc1Cl)-c1cc(=O)c(C(=O)O)cn1[C@H](CCO)CO2 [Example 80, (R)-2-Chloro-7-(2-hydroxyethyl)-3-(3-methoxypropoxy)-11-oxo-6,7-dihydro-11H-dipyrido[1,2-d:2′,3′-f][1,4]oxazepine-10-carboxylic acid] | 0.26
CC(C)COc1cc2c(nc1C1CC1)-c1cc(=O)c(C(=O)O)cn1[C@H](C(C)C)CO2 [Example 76, (R)-2-Cyclopropyl-3-isobutoxy-7-isopropyl-11-oxo-6,7-dihydro-11H-dipyrido[1,2-d:2′,3′-f][1,4]oxazepine-10-carboxylic acid] | 0.86
COCCCOc1cc2c(nc1OC)-c1cc(=O)c(C(=O)O)cn1C1(CCC1)C2 [Example 171, 2′-Methoxy-3′-(3-methoxypropoxy)-10′-oxo-5′,10′-dihydrospiro[cyclobutane-1,6′-pyrido[1,2-h][1,7]naphthyridine]-9′-carboxylic acid] | 0.018
CCc1cc2c(cc1OCCCOC)OC[C@@H](C(C)C)n1cc(C(=O)O)c(=O)cc1-2 [Example 47, (R)-2-Ethyl-7-isopropyl-3-(3-methoxypropoxy)-11-oxo-6,7-dihydro-11H-benzo[f]pyrido[1,2-d][1,4]oxazepine-10-carboxylic acid] | 0.006
COCCCOc1cc2c(cc1Cl)-c1cc(=O)c(NC(=O)OC(C)(C)C)cn1C(C(C)(C)C)C2 (stereo not drawn) [Example 119, Tert-butyl N-[6-tert-butyl-10-chloro-9-(3-methoxypropoxy)-2-oxo-6H,7H-pyrido[2,1-a]isoquinolin-3-yl]carbamate] | 0.14

Same assay, conditions: read-out: sAg EC50; HepG2.2.15 cells, day 6

Structure (SMILES) | EC50 [µM]
COCCCOc1cc2c([nH]c1=O)-c1cc(=O)c(C(=O)O)cn1C(C(C)C)C2 (single isomer, unassigned) [Example 167, 6-Isopropyl-3-(3-methoxypropoxy)-2,10-dioxo-2,5,6,10-tetrahydro-1H-pyrido[1,2-h][1,7]naphthyridine-9-carboxylic acid] | 1
